This note sets out measurements from paper PMC10786919, “Design-rules for stapled peptides with in vivo activity and their application to Mdm2/X antagonists” (Nature Communications, 2024).

Each structure is given as a SMILES string. In brackets after ≈: the same amount, converted by molar mass. Like-named read-outs stand apart in the source and are kept apart here. Positions of bridges follow the written chain, without caps; N, C: chain ends. Non-standard residues stand in square brackets, D forms with d. Residues, ends and D or L forms follow the SMILES beside them. Lys(N3) = [N-]=[N+]=NCCCC[C@H](N)C(=O)O; R8 = C=CCCCCCC[C@@](C)(N)C(=O)O; Cba = N[C@@H](CC1CCC1)C(=O)O; S5 = C=CCCC[C@](C)(N)C(=O)O; βAla = NCCC(=O)O

The nature of data set [1]: Lactate dehydrogenase (LDH) release assay. Format: cell-based. A digest of the protocol: (§1)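 Geometric means of at least three independent biological runs are given for LDH release measured in HCT116 cells stably expressing a p53-driven β-lactamase reporter. Plating density was 8000 cells/well; DMSO in wells was 0.5%.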
In data set [2] the test system is HCT116 cells. Briefly: Lactate dehydrogenase (LDH) release assay. Format: cell-based. A digest of the protocol: as §1
Data set [3] is described as follows: Solubility assay (kinetic solubility, PBS pH 7). Format: physicochemical. The settings on record: pH 7, PBS; for solubility kinetic: pH 7, aqueous buffer, kinetic from dmso stock, read-out: Solubility. A digest of the protocol: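 Quantitation uses an external standard at 100 µM, prepared from 10 mM stock in acetonitrile:methanol:DMSO (10:80:10). Solubility (µM) = (peak area of sample ÷ peak area of standard) × standard concentration.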

Data set [4] is described as follows: Nanoclick permeability assay. In a few lines: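 Azido-peptide permeability was read as loss of NanoBRET signal (donor 450 nm, acceptor 610 nm) after adding NanoBret618-azide at 10 μM final.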
Data set [5] is described as follows: physchem.
A short description of data set [6]: Experimental LogD (partition coefficient). The note with it: for logD: not stated, Partition Coeff LogD.
[7] abbreviates: 0% FBS 4Hr, read-out: LDH: Cytotoxicity assay EC50.
The mark [8] stands for this setting: Nanoclick permeability assay EC50.

The EC50 is the concentration giving half of the maximal effect. Broadly, the logD is the decadic logarithm of the distribution of all forms, ionised or not, between an organic phase and buffer at a given pH. Lower therefore signals lower lipophilicity. Take `CC(=O)N[C@@H](CCCCN=[N+]=[N-])C(=O)NCCC(=O)N[C@@H](CC(C)C)C(=O)N[C@H](C(=O)N[C@@H](Cc1ccccc1)C(=O)N[C@]1(C)CCCCCCC=CCCC[C@@](C)(C(=O)N[C@@H](CO)C(=O)N[C@@H](C)C(=O)N[C@@H](C)C(N)=O)NC(=O)[C@H](CC2CCC2)NC(=O)[C@H](Cc2c[nH]cn2)NC(=O)[C@H](C)NC(=O)[C@H](Cc2c[nH]c3ccccc23)NC(=O)[C@H](Cc2ccc(O)cc2)NC(=O)[C@H](CCC(=O)O)NC1=O)[C@@H](C)O` [MP-176, AZIDE-ATSP-7041 (Q9H)]: the EC50 in data set [1] (setting [7]) was greater than 50000 nM. In addition, the “LDH: Cytotoxicity assay % Effect” value in data set [2] (0% FBS 4Hr) is given as 5.39%; in data set [2] (0% FBS 16Hr), 4.02%. Besides, in data set [3], the solubility kinetic was determined as 2 µM (≈ 3.96 µg/mL). In addition, the cell entry EC50 in data set [4] amounted to 396 nM. This compound registered an EPSA in data set [5] of 222 A^2. This compound also yielded a log distribution coefficient (logD) in data set [6] of 2.88.
On to `CC(=O)N[C@@H](CCCCN=[N+]=[N-])C(=O)NCCC(=O)N[C@@H](CC(C)C)C(=O)N[C@@H](Cc1c[nH]cn1)C(=O)N[C@@H](Cc1ccccc1)C(=O)N[C@]1(C)CCCCCCC=CCCC[C@@](C)(C(=O)N[C@@H](CO)C(=O)N[C@@H](C)C(=O)N[C@@H](C)C(N)=O)NC(=O)[C@H](CC2CCC2)NC(=O)[C@H](CCC(N)=O)NC(=O)[C@H](C)NC(=O)[C@H](Cc2c[nH]c3ccccc23)NC(=O)[C@H](Cc2ccc(O)cc2)NC(=O)[C@H](CCC(=O)O)NC1=O` [MP-174, AZIDE-ATSP-7041 (T2H)], for which the EC50 in data set [1] (setting [7]) was greater than 50000 nM. Besides, the “LDH: Cytotoxicity assay % Effect” value worked out at 2.115% in data set [2] (0% FBS 4Hr) and 21.18% in data set [2] (0% FBS 16Hr). The cell entry EC50 in data set [4] is 50.6 nM. Also, the EPSA in data set [5] came to 225 A^2. This compound came in with a logD in data set [6] of 2.84.
Turning to `CC(=O)N[C@@H](CCCCN=[N+]=[N-])C(=O)NCCC(=O)N[C@@H](Cc1ccc(O)cc1)C(=O)N[C@H](C(=O)N[C@@H](Cc1ccccc1)C(=O)N[C@]1(C)CCCCCCC=CCCC[C@@](C)(C(=O)N[C@@H](CO)C(=O)N[C@@H](C)C(=O)N[C@@H](C)C(N)=O)NC(=O)[C@H](CC2CCC2)NC(=O)[C@H](Cc2c[nH]c3ccccc23)NC(=O)[C@H](C)NC(=O)[C@H](Cc2c[nH]c3ccccc23)NC(=O)[C@H](Cc2ccc(O)cc2)NC(=O)[C@H](Cc2c[nH]c3ccccc23)NC1=O)[C@@H](C)O` [MP-540] (Ac-[Lys(N3)][βAla]YTF[R8]WYWAW[Cba][S5]SAA-NH2; staple 6-13), the EC50 in data set [1] (LDH: Cytotoxicity assay EC50) was greater than 50600 nM. The solubility kinetic in data set [3] turned out to be 2 µM (≈ 4.27 µg/mL). In data set [4] (setting [8]), the cell entry EC50 amounted to 94.2 nM. Also, the EPSA in data set [5] turned out to be 253 A^2. The logD in data set [6] came out at 3.67.
`CC(=O)N[C@@H](CCCCN=[N+]=[N-])C(=O)NCCC(=O)N[C@@H](CC(C)C)C(=O)N(C)[C@H](C(=O)N[C@@H](Cc1ccccc1)C(=O)N[C@]1(C)CCCCCCC=CCCC[C@@](C)(C(=O)N[C@@H](CO)C(=O)N[C@@H](C)C(=O)N[C@@H](C)C(N)=O)NC(=O)[C@H](CC2CCC2)NC(=O)[C@H](CCC(N)=O)NC(=O)[C@H](C)NC(=O)[C@H](Cc2c[nH]c3ccccc23)NC(=O)[C@H](Cc2ccc(O)cc2)NC(=O)[C@H](CCC(=O)O)NC1=O)[C@@H](C)O` [MP-190] registered a concentration giving a half-maximal response (EC50) in data set [1] (LDH: Cytotoxicity assay EC50) greater than 50000 nM. Besides, the solubility kinetic in data set [3] stood at 116 µM (≈ 229 µg/mL). Besides, the cell entry EC50 in data set [4] (setting [8]) is 420 nM. Moreover, the EPSA in data set [5] turned out to be 219 A^2. In data set [6], the logD is 2.73.
Take `CC(=O)N[C@@H](CCCCN=[N+]=[N-])C(=O)NCCC(=O)N[C@@H](CC(C)C)C(=O)N[C@H](C(=O)N[C@@H](Cc1ccccc1)C(=O)N[C@]1(C)CCCCCCC=CCCC[C@@](C)(C(=O)N[C@@H](CO)C(=O)N[C@@H](C)C(=O)N[C@@H](C)C(N)=O)NC(=O)[C@H](CC2CCC2)NC(=O)[C@H](CCC(N)=O)NC(=O)C(C)(C)NC(=O)[C@H](Cc2c[nH]c3ccccc23)NC(=O)[C@H](Cc2ccc(O)cc2)NC(=O)[C@H](CCC(=O)O)NC1=O)[C@@H](C)O` [MP-170]: the EC50 in data set [1] (LDH: Cytotoxicity assay EC50) was greater than 50000 nM. Besides, the solubility kinetic in data set [3] amounted to 92.5 µM (≈ 184 µg/mL). The cell entry EC50 in data set [4] (setting [8]) stood at 549 nM. In data set [5], this compound yielded an EPSA of 225 A^2. This compound had a logD in data set [6] of 2.85.
In the case of `CC(=O)N[C@@H](CCCCN=[N+]=[N-])C(=O)NCCC(=O)N[C@@H](CC(C)C)C(=O)N[C@H](C(=O)N[C@@H](Cc1ccccc1)C(=O)N[C@]1(C)CCCCCCC=CCCC[C@@](C)(C(=O)N[C@@H](CO)C(=O)N[C@@H](C)C(=O)N[C@@H](CC(C)C)C(N)=O)NC(=O)[C@H](CC2CCC2)NC(=O)[C@H](CCC(N)=O)NC(=O)[C@H](C)NC(=O)[C@H](Cc2c[nH]c3ccccc23)NC(=O)[C@H](Cc2c[nH]c3ccccc23)NC(=O)[C@H](Cc2c[nH]c3ccccc23)NC1=O)[C@@H](C)O` [MP-544] (Ac-[Lys(N3)][βAla]LTF[R8]WWWAQ[Cba][S5]SAL-NH2; staple 6-13), in data set [1] (LDH: Cytotoxicity assay EC50), the EC50 is greater than 50600 nM. Also, the Solubility entry in data set [3] is “Poorly Behaved”. Further, the cell entry EC50 in data set [4] (setting [8]) is 124 nM. The compound further gave an EPSA in data set [5] of 227 A^2. In addition, the “Partition Coeff LogD” value in data set [6] is “Poorly Behaved”.
As for `CC(=O)N[C@@H](CCCCN=[N+]=[N-])C(=O)NCCC(=O)N[C@@H](CCCNC(=N)N)C(=O)N[C@H](C(=O)N[C@@H](Cc1ccccc1)C(=O)N[C@]1(C)CCCCCCC=CCCC[C@@](C)(C(=O)N[C@@H](CO)C(=O)N[C@@H](C)C(=O)N[C@@H](C)C(N)=O)NC(=O)[C@H](CC2CCC2)NC(=O)[C@H](CCCNC(=N)N)NC(=O)[C@H](C)NC(=O)[C@H](Cc2c[nH]c3ccccc23)NC(=O)[C@H](Cc2ccccc2)NC(=O)[C@H](CCC(=O)O)NC1=O)[C@@H](C)O` [MP-538] (Ac-[Lys(N3)][βAla]RTF[R8]EFWAR[Cba][S5]SAA-NH2; staple 6-13), the response in data set [1] (LDH: Cytotoxicity assay EC50) was half-maximal at 6780 nM (EC50). Besides, in data set [3], the solubility kinetic was 5 µM (≈ 10.1 µg/mL). Also, the cell entry EC50 in data set [4] (setting [8]) was found to be 230 nM. This compound had an EPSA in data set [5] of 223 A^2. Further, in data set [6], the logD was found to be 3.16.
On the same counts, the results for `CC(=O)N[C@@H](CCCCN=[N+]=[N-])C(=O)NCCC(=O)N[C@@H](CCCNC(=N)N)C(=O)N[C@@H](Cc1ccc(O)cc1)C(=O)N[C@@H](Cc1ccccc1)C(=O)N[C@]1(C)CCCCCCC=CCCC[C@@](C)(C(=O)N[C@@H](CO)C(=O)N[C@@H](C)C(=O)N[C@@H](Cc2ccccc2)C(N)=O)NC(=O)[C@H](CC2CCC2)NC(=O)[C@H](CCC(N)=O)NC(=O)[C@H](C)NC(=O)[C@H](Cc2c[nH]c3ccccc23)NC(=O)[C@H](Cc2ccc(O)cc2)NC(=O)[C@H](CCC(=O)O)NC1=O` [MP-5546] (Ac-[Lys(N3)][βAla]RYF[R8]EYWAQ[Cba][S5]SAF-NH2; staple 6-13) are greater than 50600 nM, 2 µM (≈ 4.3 µg/mL), 511 nM, 256 A^2 and 3.2.
The like results for `CSCC[C@H](NC(=O)[C@H](CO)NC(=O)[C@]1(C)CCCC=CCCCCCC[C@@](C)(NC(=O)[C@H](Cc2ccccc2)NC(=O)[C@H](Cc2ccc(O)cc2)NC(=O)[C@H](CC(C)C)NC(=O)CCNC(=O)[C@H](CCCCN=[N+]=[N-])NC(C)=O)C(=O)N[C@@H](CCC(=O)O)C(=O)N[C@@H](Cc2ccc(O)cc2)C(=O)N[C@@H](Cc2c[nH]c3ccccc23)C(=O)N[C@@H](C)C(=O)N[C@@H](CCC(N)=O)C(=O)N[C@@H](CC2CCC2)C(=O)N1)C(=O)N[C@@H](CC(C)C)C(N)=O` [MP-543] (Ac-[Lys(N3)][βAla]LYF[R8]EYWAQ[Cba][S5]SML-NH2; staple 6-13) were, in that order, greater than 50600 nM, 30.5 µM (≈ 65.1 µg/mL), 139 nM, 234 A^2 and 3.56.
On the same counts, the results for `CC(=O)N[C@@H](CCCCN=[N+]=[N-])C(=O)NCCC(=O)N[C@@H](CC(C)C)C(=O)NC(C)(C)C(=O)N[C@@H](Cc1ccccc1)C(=O)N[C@]1(C)CCCCCCC=CCCC[C@@](C)(C(=O)N[C@@H](CO)C(=O)N[C@@H](C)C(=O)N[C@@H](C)C(N)=O)NC(=O)[C@H](CC2CCC2)NC(=O)[C@H](CCC(N)=O)NC(=O)[C@H](C)NC(=O)[C@H](Cc2c[nH]c3ccccc23)NC(=O)[C@H](Cc2ccc(O)cc2)NC(=O)[C@H](CCC(=O)O)NC1=O` [MP-169] are greater than 50000 nM, 61.5 µM (≈ 120 µg/mL), 253 nM, 227 A^2 and 3.06.
With `CC(=O)N[C@@H](CCCCN=[N+]=[N-])C(=O)NCCC(=O)N[C@@H](CC(C)C)C(=O)N[C@H](C(=O)N[C@@H](Cc1ccccc1)C(=O)N[C@]1(C)CCCCCCC=CCCC[C@@](C)(C(=O)N[C@@H](CO)C(=O)N[C@@H](C)C(=O)N[C@@H](C)C(N)=O)NC(=O)[C@H](CC2CCC2)NC(=O)[C@H](CCC(N)=O)NC(=O)[C@H](CCC(=O)O)NC(=O)[C@H](Cc2c[nH]c3ccccc23)NC(=O)[C@H](Cc2ccc(O)cc2)NC(=O)[C@H](CCC(=O)O)NC1=O)[C@@H](C)O` [MP-180], the EC50 in data set [1] (LDH: Cytotoxicity assay EC50) was greater than 50000 nM. Besides, the solubility kinetic in data set [3] is 93 µM (≈ 189 µg/mL). In data set [4] (setting [8]), the cell entry EC50 was 732 nM. Moreover, the EPSA in data set [5] was 235 A^2. The logD in data set [6] came to 2.38.
